{"source": "patent US6255497A", "about": "“Method for the inhibition of ALDH-I useful in the treatment of alcohol dependence or alcohol abuse” (priority 1998, dated 2001)", "molecules": {"B1": {"name": "human ALDH-II (Homo sapiens) (protein)", "chain": "MSSSGTPDLPVLLTDLKIQYTKIFINNEWHDSVSGKKFPVFNPATEEELCQVEEGDKEDVDKAVKAARQAFQIGSPWRTMDASERGRLLYKLADLIERDRLLLATMESMNGGKLYSNAYLNDLAGCIKTLRYCAGWADKIQGRTIPIDGNFFTYTRHEPIGVCGQIIPWNFPLVMLIWKIGPALSCGNTVVVKPAEQTPLTALHVASLIKEAGFPPGVVNIVPGYGPTAGAAISSHMDIDKVAFTGSTEVGKLIKEAAGKSNLKRVTLELGGKSPCIVLADADLDNAVEFAHHGVFYHQGQCCIAASRIFVEESIYDEFVRRSVERAKKYILGNPLTPGVTQGPQIDKEQYDKILDLIESGKKEGAKLECGGGPWGNKGYFVQPTVFSNVTDEMRIAKEEIFGPVQQIMKFKSLDDVIKRANNTFYGLSAGVFTKDIDKAITISSALQAGTVWVNCYGVVSAQCPFGGFKMSGNGRELGEYGFHEYTEVKTVTVKISQKNS"}}, "key": {"ALDH-I [1]": {"target": "T1, ALDH-I (Homo sapiens, UniProt P05091)", "T1 sequence (P05091 18-517)": "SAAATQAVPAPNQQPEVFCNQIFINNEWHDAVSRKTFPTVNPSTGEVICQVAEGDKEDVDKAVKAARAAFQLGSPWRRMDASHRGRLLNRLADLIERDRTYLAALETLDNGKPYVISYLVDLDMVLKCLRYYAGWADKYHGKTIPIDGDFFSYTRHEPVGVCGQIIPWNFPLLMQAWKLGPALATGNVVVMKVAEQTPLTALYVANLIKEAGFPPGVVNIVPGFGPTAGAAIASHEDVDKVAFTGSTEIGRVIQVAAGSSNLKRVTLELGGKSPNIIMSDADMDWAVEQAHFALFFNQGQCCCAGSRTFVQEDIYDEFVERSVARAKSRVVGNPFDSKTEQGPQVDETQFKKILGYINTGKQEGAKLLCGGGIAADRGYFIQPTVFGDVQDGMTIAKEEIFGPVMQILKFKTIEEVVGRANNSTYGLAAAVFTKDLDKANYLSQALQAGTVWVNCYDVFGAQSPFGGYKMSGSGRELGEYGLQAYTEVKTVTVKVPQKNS", "experiment": "Competitive inhibition of ALDH-I with acetaldehyde as substrate, progress curve method", "type": "biochemical", "design": "A liver sample (50 g wet weight) with the usual Caucasian ALDH phenotype (both ALDH-I and ALDH-II present); from tissue; host or cells: human liver (autopsy), purified by CM-52, AMP-agarose and DEAE HPLC", "excerpt": "The progress curve method described by Klyosov and Berezin, 1972, Biokhimiya (Engl. transl.), Plenum, New York, 22: 141-151, was used instead of the initial velocilty method of Example 3 to obtain precis* values for inhibition constants for ALDH-I with acetaldehyde as substrate and the very tight binding novel inhibitors (Table VI)."}, "golden hamsters": {"system": "golden hamsters", "experiment": "Dose effect on free choice ethanol intake in golden hamsters, i.p.", "type": "in vivo, golden hamster", "excerpt": "It is common practice in quantitative drug studies with rodents to use intraperitoneal (i.p.) administration to deliver drug doses accurately (Goodman and Gilman, 1975, The Pharmacological Basis of Therapeutics, 5th ed., Macmillan, N.Y., p. 8). In particular, this method avoids variability introduced by technical difficulties of oral administration via feeding (full versus empty stomach, etc.), variations in drug transport in the gastrointestinal tract (variations in intestinal fauna and flora, individual variations in absorption rate expected of outbred animals, etc.) and other factors. […] As a control 1 ml of sterile saline was injected i.p. daily during the baseline period (typically 7-9 days) that establishes drinking preference without the drug. Saline injection i.p. had no effect on the drinking behavior of golden hamsters. Ethanol was provided as a 20% solution. Hamsters could be used more than once (but were not used more than three times) in a cycle of baseline saline injections followed by drug injections, each cycle with the drug at a different dose.\nThe response to daidzin treatment was computed as:\n% Response=(Vo -Vd)×100/Vo"}, "physchem": {"experiment": "physchem", "conditions": "water"}, "ALDH-II [2]": {"target": "T2, ALDH-II (Homo sapiens, UniProt P00352)", "T2 sequence (P00352 1-501)": "B1 chain", "experiment": "Competitive inhibition of ALDH-II with acetaldehyde as substrate", "type": "biochemical", "design": "A liver sample (50 g wet weight) with the usual Caucasian ALDH phenotype (both ALDH-I and ALDH-II present); from tissue; host or cells: human liver (autopsy), purified by CM-52, AMP-agarose and DEAE HPLC", "conditions": "acetaldehyde as substrate, competitive; read-out: Ki, ALDH-II"}, "[3]": {"experiment": "Plasma drug concentration versus time after a single 10 mg dose", "type": "in vivo", "conditions": "golden hamster", "excerpt": "Five hours later the plasma concentrations of both inhibitors were still above […], far above their competitive inhibition constants for ALDH-I."}, "human class IV ADH": {"system": "human class IV ADH", "conditions": "cited from earlier work"}, "[4]": {"system": "class I ADH isozymes containing at least one γ-subunit", "conditions": "cited from earlier work"}, "ALDH-I or ALDH-II": {"system": "ALDH-I or ALDH-II", "experiment": "Survey of structurally related compounds for ALDH inhibition", "type": "biochemical, human", "protocol": "For the study of the inhibition of ALDH-I by structurally related compounds to generate the data shown in Tables IV and V, each individual compound was dissolved at different concentrations in methanol and was added to the assay medium as 10 μL aliquots. For controls, 10 […] of methanol was added to the assay medium. In a standard ALDH-I assay, the assay medium contains 0.1 M sodium pyrophosphate pH 9.5, 0.15 M KCl, 1 mM NAD^+, 1% methanol, 5 μM acetaldehyde, 5-10 nM ALDH-I and various concentrations of inhibitor. The enzyme reaction rates were measured by monitoring the production of NADH at 340 nm (ε=6.22 mM^-1 cm^-1) with a Varian Cary 219 spectrophotometer thermostated at 25° C. (Fong et al., 1989, supra). The inhibition of ALDH-I by the inhibitors was calculated as: [formula]\nwhere Vo is the enzyme reaction rate measured in the absence of inhibitor, and where Vi is the enzyme reaction rate measured in the presence of inhibitor. […] IC50 values are related to the underlying Ki values."}, "ADH isozymes": {"system": "ADH isozymes", "experiment": "Inhibition of ADH", "type": "biochemical, human"}, "[5]": {"conditions": "intravenous, mice; cited from earlier work"}, "[6]": {"conditions": "two human volunteers, after 60 hours; cited from earlier work"}, "ALDH [7]": {"system": "ALDH", "conditions": "cited from earlier work"}, "[8]": {"system": "dopamine-β-hydroxylase, microsomal mixed function oxidases and other sulfhydryl-containing enzymes", "conditions": "cited from earlier work"}, "euphoria": {"system": "euphoria", "conditions": "double-blind study in humans; cited from earlier work"}, "ALDH-I [9]": {"system": "ALDH-I", "conditions": "cited from earlier work"}, "ALDH-II [10]": {"system": "ALDH-II", "conditions": "high Km cytosolic isozyme; cited from earlier work"}, "[11]": {"conditions": "cited from earlier work"}, "alcohol consumption [12]": {"system": "alcohol consumption", "conditions": "placebo-controlled clinical trials; cited from earlier work"}, "ALDH-I [13]": {"system": "ALDH-I", "conditions": "via reactive product of catabolism; cited from earlier work"}, "[14]": {"conditions": "experimental animals; cited from earlier work"}, "ALDH-II [15]": {"system": "ALDH-II", "conditions": "cited from earlier work"}, "ALDH-I [16]": {"system": "ALDH-I", "conditions": "cited from earlier work", "remark": "listed apart in the source"}, "ALDH [17]": {"system": "ALDH", "conditions": "cited from earlier work", "remark": "listed apart in the source"}, "ALDH-II [18]": {"system": "ALDH-II", "conditions": "via reactive product of catabolism; cited from earlier work"}, "alcohol consumption [19]": {"system": "alcohol consumption", "conditions": "rat, in vivo; cited from earlier work"}, "[20]": {"substrate": "C=O", "experiment": "purified protein, by the assay type", "conditions": "pH 9.5; 25.0 °C", "method": "The inhibition kinetics were studied by the initial velocity method (Dixon and Webb, 1979, Enzymes, 3rd ed., Longman, Great Britain). […] The initial reaction rates were measured in a pH 9.5 assay medium 0.1 11 in glycine-NaOH, 0. […] The enzyme reaction rates were followed by monitoring the production of NADH at 340 nm (ε-6.22 mM^-1 cm^-1) with a Varian Cary 219 spectrophotometer thermostated at 25° C. The kinetic data were analyzed by standard graphical methods."}}, "note": "Where two headings read alike, the source gives them in different places.", "data": [{"molecule": "O=C(O)CCCCCCOc1ccc2c(=O)c(-c3ccc(O)cc3)coc2c1", "note": "[Daidzein 7-(ω-carboxyhexyl) ether, daidzein 7-(ω-carboxyhexyl) ether]", "values": [{"measurement": "Ki", "setting": "ALDH-I [1]", "value": 9, "unit": "nM"}, {"measurement": "suppression of alcohol intake, hamster B7", "setting": "golden hamsters; 10 mg/day, i.p., trained hamster B7", "value": 69, "unit": "%"}, {"measurement": "suppression of alcohol intake, hamster E23", "setting": "golden hamsters; 10 mg/day, i.p., trained hamster E23", "value": 72, "unit": "%"}, {"measurement": "potency relative to daidzin, suppression of alcohol intake", "setting": "golden hamsters; assuming a dose response slope similar to that of daidzin", "value": "not more than twice as potent as daidzin"}, {"measurement": "solubility", "setting": "physchem", "value": 13, "unit": "mM"}, {"measurement": "Ki", "setting": "ALDH-II [2]", "value": 215, "unit": "nM"}, {"measurement": "time to maximal plasma concentration after injection", "setting": "[3]; i.p.", "value": "within about an hour after injection"}, {"measurement": "Cmax", "setting": "[3]; plasma, ip, read-out: maximal plasma concentration", "value": 4.5, "unit": "µM"}]}, {"molecule": "CCO", "note": "[ethanol]", "values": [{"measurement": "Km", "setting": "human class IV ADH", "value": 41, "unit": "mM"}]}, {"molecule": "C[C@]12CC[C@H]3[C@@H](CCC4=CC(=O)CC[C@@]43C)[C@@H]1CC[C@@H]2O", "note": "[testosterone]", "values": [{"measurement": "selective inhibition of γ-subunit class I ADH", "setting": "[4]", "value": "selectively inhibited"}]}, {"molecule": "O=c1c(-c2ccc(O)cc2)coc2cc(O)ccc12", "note": "[Daidzein]", "values": [{"measurement": "ALDH inhibition", "setting": "ALDH-I or ALDH-II", "value": "does not inhibit ALDH"}, {"measurement": "ADH inhibition", "setting": "ADH isozymes", "value": "selectively inhibits certain ADH isozymes"}, {"measurement": "half-life", "setting": "[5]", "value": "on the order of one hour"}, {"measurement": "excretion in urine and feces", "setting": "[6]", "value": "little daidzein had appeared in urine and feces after 60 hours"}]}, {"molecule": "CCN(CC)C(=S)SSC(=S)N(CC)CC", "note": "[disulfiram, tetraethylthiuram disulfide]", "values": [{"measurement": "reversibility of ALDH inhibition in vivo", "setting": "ALDH [7]", "value": "irreversible"}, {"measurement": "time over which ALDH is inhibited in vivo", "setting": "ALDH [7]", "value": 12, "unit": "h"}, {"measurement": "time to restoration of ALDH activity", "setting": "ALDH [7]; in vivo, de novo enzyme synthesis", "value": "≥ 6", "unit": "days"}, {"measurement": "specificity of enzyme inhibition", "setting": "[8]", "value": "broadly acting but non-specific inhibitor"}, {"measurement": "effect with low doses of alcohol", "setting": "euphoria", "value": "induces and enhances euphoria"}, {"measurement": "inhibition of ALDH-I in vitro", "setting": "ALDH-I [9]; major mitochondrial isozyme", "value": "only slightly"}, {"measurement": "inhibition of ALDH-I in vitro in presence of mercaptans", "setting": "ALDH-I [9]; trace amounts of 2-mercaptoethanol or methanethiol", "value": "inactivated"}, {"measurement": "inhibition of ALDH-II in vitro", "setting": "ALDH-II [10]", "value": "potent inhibitor"}, {"measurement": "skin toxicity and neuropathy", "setting": "[11]; in vivo", "value": "peripheral neuropathy"}, {"measurement": "reduction of alcohol consumption vs placebo", "setting": "alcohol consumption [12]", "value": "no more effective than the placebo control"}]}, {"molecule": "N#CN", "note": "[cyanamide]", "values": [{"measurement": "inhibition of ALDH-I in vivo", "setting": "ALDH-I [13]", "value": "inhibits both isozymes"}, {"measurement": "effect with low doses of alcohol", "setting": "euphoria", "value": "induces and enhances euphoria"}, {"measurement": "antithyroid activity", "setting": "[14]", "value": "significant antithyroid activity"}, {"measurement": "inhibition of ALDH-II in vitro", "setting": "ALDH-II [15]", "value": "Neither ALDH-I (the low Km isozyme) nor ALDH-II (the high Km isozyme) are inhibited in vitro"}, {"measurement": "liver injury", "setting": "[11]; alcoholics treated with cyanamide", "value": "liver injury, including generation of ground-glass inclusion bodies in liver cells"}, {"measurement": "cardiotoxic effects", "setting": "[11]; in vivo", "value": "cardiotoxic effects, including hypotension and even cardiac death"}, {"measurement": "inhibition of ALDH-I in vitro", "setting": "ALDH-I [16]", "value": "Neither ALDH-I (the low Km isozyme) nor ALDH-II (the high Km isozyme) are inhibited in vitro"}, {"measurement": "reversibility of ALDH inhibition", "setting": "ALDH [17]; in vivo", "value": "reversible"}, {"measurement": "time of maximal ALDH inhibition after drug administration", "setting": "ALDH [17]; in vivo", "value": "1 to 2", "unit": "h"}, {"measurement": "restoration of ALDH activity within 24 hours", "setting": "ALDH [17]; within 24 hours", "value": 80, "unit": "%"}, {"measurement": "inhibition of ALDH-II in vivo", "setting": "ALDH-II [18]", "value": "inhibits both isozymes"}, {"measurement": "alcohol consumption after alcohol deprivation", "setting": "alcohol consumption [19]", "value": "increase in alcohol consumption"}]}, {"molecule": "CCOc1ccc2c(=O)c(-c3ccc(O)cc3)coc2c1", "note": "[Daidzein 7-ethyl ether]", "values": [{"measurement": "Ki", "setting": "ALDH-I [1]", "value": 38, "unit": "nM"}, {"measurement": "Ki", "setting": "ALDH-II [2]", "value": 440, "unit": "nM"}]}, {"molecule": "B1", "values": [{"measurement": "Km", "setting": "[20]", "value": 6.6, "unit": "mM"}]}]}
